Patent US6469060B2, “Compositions based on iodopropynyl-and formaldehyde donor compounds and to their use as preservatives” (Air Liquide Sante (International), priority 1997, dated 2002)

How the values were obtained:
[1] = Formaldehyde emission of N-formals, Dräger tubes (Example 9); type: physicochemical; conditions: pure N-formal, 1 g overnight in covered 400 ml beaker; for formaldehyde content: Dräger tubes (10 strokes)
Method: For this purpose, 1 g of each of the N-formals was left to stand overnight in a 400 ml beaker covered with para-film. On the following day, the formaldehyde content was then measured using Dräger tubes (10 strokes) as described in Example 1.
The formaldehyde content was 15 ppm (2 strokes 3 ppm) in 3,3′-methylenebis(tetrahydro-2H-1,3-oxazine) and 25 ppm (2 strokes 5 ppm) in Mar 71™. Preparations of 80% by weight of each N-formal and 20% by weight of 1,2-propylene glycol display a clearly different behavior. For example, the addition of 1,2-PLG to 3,3′-methylenebis(tetrahydro-2H-1,3-oxazine) leads to a reduction in the formaldehyde content to form 1.5 to 2.5 ppm (20 strokes) and the addition to Mar 71™ to a reduction to 10 ppm (5 strokes 5 ppm), the formaldehyde content being determined as described above for pure N-formals.

[2] = Stability and compatibility of IPBC with various N-formals, storage at +40° C. in clear glass (Example 2); type: physicochemical; conditions: discoloration and IPBC degradation
Method: The stability and compatibility of IPBC in compositions containing 3% by weight of IPBC, from 80 to 97% by weight of N-formals and […] by weight of 1,2-PLG were determined as a function of the storage time after the solutions had been stored at a temperature of +40° C. in clear glass.
The initially clear, colorless to slightly yellowish solutions became discoloured to varying degrees after storage for three months at a temperature of +40° C. Only the compositions based on IPBC and Mar 71 retained their clear, slightly yellowish appearance.
A summary of the development of the IPBC content, determined by means of HPLC (IPBC starting content 3% by weight) in the compositions investigated as a function of the storage period, is given in Table IV.

| formaldehyde content, reading at 2 strokes [1] | formaldehyde content [1] | Compatibility with IPBC [2] | SMILES |
| --- | --- | --- | --- |
| 3 ppm | 15 ppm | – | C1COCN(CN2CCCOC2)C1 [3,3′-methylenebis(tetrahydro-2H-1,3-oxazine), reference compound] |
| – | – | incompatible | OCCN1CN(CCO)CN(CCO)C1 [Grotan BK TM, 1,3,5-tris(hydroxyethyl)hexahydrotriazine] |
| 5 ppm | 25 ppm | – | CC1CN(CN2COC(C)C2)CO1 (centres unmarked) [Mar 71™, 3,3′-methylenebis(5-methyloxazolidine)] |
